Patent US12459918B2, “Isoquinolinone derivatives serving as rock protein kinase inhibitors and use thereof” (GUANGZHOU OCUSUN OPHTHALMIC BIOTECHNOLOGY CO., LTD., priority 2019, dated 2025)

What was measured:
[1] = Toxicokinetics experiment: active compounds in plasma after 14 days of continuous administration; format: in vivo, New Zealand rabbits; conditions: for Concentration of active compounds in plasma, Group 1 / Concentration of active compounds in plasma, Group 2: 8.0 mg/mL eye-drop, after 14 days of continuous administration
Procedure: Experimental Example 5. Toxicokinetics Experiment
The production rate of active drug ingredients and the exposure amount of active drug ingredients of the compound in plasma were detected after 14 days of continuous administration.
Male New Zealand rabbits, aged 3-6 months, weighted 2.0-5.0 kg, purchased from PizhouDongfang Breeding Co. Ltd.
After 14 days of continuous administration, blood samples from the group administrated with compound 63 (8.0 mg/mL) were collected at 0 hour (before administration) and in 0.5, 1, 2, 4, 8, and 24 hours after administration on Days 14-15. About 0.8 mL of whole blood was collected from the auricular artery or the saphenous vein of the hind limb (or other appropriate sites) of toxicokinetics experiment animals, and was placed in labeled collection tubes using ethylenediaminetetraacetic acid dipotassium (K2EDTA) as an anticoagulant. Plasma was obtained by centrifugation for 10 minutes at 3000 rpm and under the condition of 2° C. to 8° C. in 60 minutes after blood collection. All samples were quantitatively detected for the content of the administered compounds in plasma of the experimental animals by liquid chromatography-coupled mass spectrometry (LC-MS) and mass spectrometry (MS) technology.

[2] = tested on: New Zealand rabbits with normal intraocular pressure; test: Intraocular pressure reduction experiment in New Zealand rabbits with normal intraocular pressure; format: in vivo; conditions: for Intraocular pressure in the left eye: 20 mg/mL group, left eye (saline or solvent); for Intraocular pressure in the right eye: 20 mg/mL in right eye; for Reduction magnitude of intraocular pressure: 20 mg/mL, left minus right eye
Text: Experimental Example 2. Intraocular Pressure Reduction Experiment in New Zealand Rabbits with Normal Intraocular Pressure
Rabbits with normal intraocular pressure were adopted to screen intraocular pressure reduction actions of the potential compounds by eye-drop administration.
Male New Zealand rabbits, aged 97-127 days, weighted 2.65-3.5 kg, purchased from PizhouDongfang Breeding Co. Ltd.
The male New Zealand rabbits were randomly divided into 8 rabbits/per group using a computer-generated randomization method Animals in each group were eye-dropped with different test samples in the right eye, and normal saline or solvent in the left eye, and the volume of the administration was both 50 μL/eye. The intraocular pressure of the animals was measured before administration and in 1, 2, 4, 6, 8 and 10 hours after the administration, respectively.

[3] = Time 0.00 hour (before administration)

## Cc1ccc(C(=O)OCn2cc(C)c3c(S(=O)(=O)N4CC[C@H](N)C4)cccc3c2=O)c(C)c1 [Compound 63]
[1]; [3]
  Concentration of active compounds in plasma, Group 1: BQL
  Concentration of active compounds in plasma, Group 2: BQL
[1]; Time 8.00 hour
  Concentration of active compounds in plasma, Group 1: BQL
  Concentration of active compounds in plasma, Group 2: BQL
[1]; Time 24.0 hour
  Concentration of active compounds in plasma, Group 1: BQL
  Concentration of active compounds in plasma, Group 2: BQL
[1]; 8 hours after administration, high dose of 8 mg/mL
  Metabolite concentration in plasma: below the detection limit

## C[C@H]1CNCCCN1S(=O)(=O)c1cccc2cncc(F)c12 [Compound K-115, reference compound]
[2]; 1 hour after administration
  Intraocular pressure in the left eye: 11.42 mmHg
  Intraocular pressure in the right eye: 7.54 mmHg
  Reduction magnitude of intraocular pressure: 3.88 mmHg
[2]; 2 hours after administration
  Intraocular pressure in the left eye: 11.67 mmHg
  Intraocular pressure in the right eye: 8.63 mmHg
  Reduction magnitude of intraocular pressure: 3.04 mmHg
[2]; 4 hours after administration
  Intraocular pressure in the left eye: 12.08 mmHg
  Intraocular pressure in the right eye: 10.83 mmHg
  Reduction magnitude of intraocular pressure: 1.25 mmHg
[2]; 6 hours after administration
  Intraocular pressure in the left eye: 12.38 mmHg
  Intraocular pressure in the right eye: 11.83 mmHg
  Reduction magnitude of intraocular pressure: 0.55 mmHg
[2]; 8 hours after administration
  Intraocular pressure in the left eye: 12.83 mmHg
  Intraocular pressure in the right eye: 12.63 mmHg
  Reduction magnitude of intraocular pressure: 0.2 mmHg
[2]; 10 hours after administration
  Intraocular pressure in the left eye: 15.25 mmHg
  Intraocular pressure in the right eye: 14.92 mmHg
  Reduction magnitude of intraocular pressure: 0.33 mmHg
[2]; before administration
  Intraocular pressure in the left eye: 12.29 mmHg
  Intraocular pressure in the right eye: 12.92 mmHg
  Reduction magnitude of intraocular pressure: −0.63 mmHg
